Experimental findings from PubChem BioAssay (NCI) are described below.

Common to all, as to assay: growth of human tumour cells (NCI), 48 h
The subject of assay [1] is SNB-75 CNS.
For assay [2], the system named is OVCAR-5 ovarian.
Assay [3] has as its system CCRF-CEM leukemia.
Assay [4] deals with MALME-3M melanoma.
The subject of assay [5] is OVCAR-4 ovarian.
Assay [6] has as its system EKVX NSCLC.
For assay [7], the system named is SK-MEL-5 melanoma.
Assay [8] relates to SK-MEL-2 melanoma.
The test system of assay [9] is OVCAR-3 ovarian.

Where “and” joins values, the source holds several entries; their conditions need not be identical. Identical values can stand only once.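 Values below derive from 48-hour exposures of cells grown in 96-well plates, with endpoints linearly interpolated between the two concentrations bracketing the appropriate inhibition level. GI50: concentration for 50% inhibition of growth. TGI marks complete inhibition of growth.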

Take `CN(C)C(=S)/N=c1\ssc(=S)n1C`: the TGI in assay [1], in assay [2], in [3], in [4], in assay [5] and in [6] was more than 100 µM throughout. For the same compound, the TGI in assay [7] and in assay [8] was more than 100 µM each time.

Regarding `COC(=O)C(=O)C(CC(=O)Nc1ccc(C)cc1)C(=O)OC` (centres undefined), the TGI in assay [2], in assay [9], in assay [3], in assay [4], in assay [5] and in assay [6] was more than 100 µM in each case. For the same compound, the TGI in assay [7] and in assay [8] was more than 100 µM each time.

As for `COC(=O)c1cc(=O)nc2cc3cccccc3n12`, the TGI in assay [1], in assay [2], in [9], in [3], in assay [4] and in assay [6] was more than 100 µM each time. For the same compound, the TGI in [7] was more than 100 µM.

In the case of `C1=Cc2nc1c(-c1ccccc1)c1ccc([nH]1)c(-c1ccccc1)c1nc(c(-c3ccccc3)c3ccc([nH]3)c2-c2ccccc2)C=C1`, the TGI in assay [1], in assay [2], in assay [9], in [3], in assay [4] and in [5] was more than 100 µM throughout. Further, the TGI in assay [6], in [7] and in assay [8] was more than 100 µM in each case.

Take `COc1ccccc1-c1cc(=O)c2cc(C)c(C)c(C(=O)O)c2o1`: the TGI in [1], in assay [2], in assay [9], in assay [3], in assay [4] and in assay [5] was more than 100 µM in each case. In addition, the TGI in assay [6], in assay [7] and in assay [8] was more than 100 µM each time.

As to `O=C1c2ccccc2C(=O)C12CCc1ccccc12`, the TGI in [1], in assay [9], in assay [3], in [4], in assay [5] and in assay [6] was more than 100 µM throughout.

On to `COc1cc(OC)c2sc(-c3ccc(-n4cncc4-c4ccc(OC)c(OC)c4)cc3)nc2c1`, for which the GI50 in assay [1] is 7.21 µM; in assay [2], more than 100 µM; in assay [9], 3.85 µM; in assay [3] it was more than 100 µM; in assay [4] it was 59.9 µM; in assay [5], 4.21 µM. Also, the GI50 is 3.61 µM in [7] and 41.4 µM in assay [8]. Besides, the TGI in assay [1] is 46 µM; in assay [2], more than 100 µM; in assay [9], 35.9 µM; in [3] it was more than 100 µM; in assay [4], more than 100 µM; in assay [5], more than 100 µM. The TGI in assay [7] and in assay [8] was more than 100 µM in each case.

Regarding `COc1cc(C(=O)N[C@H]2CCc3cc(OC)c(OC)c(OC)c3-c3ccc(SC)c(=O)cc32)cc(OC)c1OC`, the TGI was 48.6 µM in assay [1]; 25 µM in [2]; 25 µM and > 100 µM in assay [3]; 17.5 µM and 14.9 µM in assay [4]; 25 µM and > 100 µM in assay [5]; 25 µM in assay [6]. Also, in assay [7], the TGI is 0.324 µM and 0.0331 µM. In addition, the GI50 in assay [4] was 0.0224 µM; in assay [5], 0.0285 µM; in assay [8], 0.02 µM.

With `CCOc1ccc(N=C(NC(=O)c2ccccc2)SC)cc1`, the TGI in assay [1], in assay [2], in assay [9], in assay [3], in [4] and in [5] was more than 100 µM throughout. Moreover, the TGI in assay [6], in [7] and in assay [8] was more than 100 µM in each case.

Regarding `CC1(C)OC(=S)N(c2ccccc2)C12C=Cc1cc3ccccc3nc1S2` (centres undefined), the TGI in [1], in assay [2], in [9], in [3], in assay [4] and in [6] was more than 100 µM each time. Besides, the TGI in [7] and in assay [8] was more than 100 µM in each case.

For the compound `O=C1CCC2(c3ccccc3)Nc3ccccc3N12` (centres undefined), the TGI in [1], in assay [2], in assay [9], in assay [3], in assay [4] and in [5] was more than 100 µM each time. The TGI in [6], in assay [7] and in assay [8] was more than 100 µM in each case.

Take `O=c1c2c(-c3ccccc3)c3ccccc3nc2cnn1-c1ccccc1`: the TGI in assay [1], in assay [2], in [9], in assay [3], in [4] and in assay [5] was more than 100 µM in each case. The TGI in assay [6], in assay [7] and in [8] was more than 100 µM each time.

With `CCC1=CCN(c2cc(C)ccn2)OC1c1ccccc1` (centres undefined), the TGI in [1] is more than 100 µM; in assay [2], more than 100 µM; in assay [9], more than 100 µM; in [3], more than 100 µM; in assay [4], 80.8 µM; in assay [5], more than 100 µM. Besides, the values for the TGI in [6] and in [8] were more than 100 µM and 43.7 µM, respectively.

Consider `CC(=O)OC(C(=O)[O][Sn]([CH3])([CH3])[CH3])c1ccccc1` (centres undefined), for which the GI50 in assay [1] was more than 100 µM; in assay [2], more than 100 µM; in assay [9] it was more than 100 µM; in [3], 63.4 µM; in assay [4] it was more than 100 µM; in assay [5], more than 100 µM. Further, the GI50 in [6] and in assay [7] was more than 100 µM each time. The TGI in assay [1], in assay [2], in assay [9], in assay [3], in [4] and in assay [5] was more than 100 µM throughout. The TGI in assay [6] and in assay [7] was more than 100 µM throughout.

Regarding `COC(=O)C(C(=O)C(=O)Nc1ccc(C)cc1C)c1csc(-n2nc(-c3ccccc3)cc2-c2ccccc2)n1` (centres undefined), the TGI in assay [1] is 52.6 µM; in [2], more than 100 µM; in assay [9], more than 100 µM; in [3], more than 100 µM; in assay [4] it was more than 100 µM; in assay [5], more than 100 µM. The compound also gave a TGI in assay [6] of more than 100 µM.

In the case of `C=C1C(=O)C23[C@H](O)C1CC[C@H]2[C@]12COC3(O)[C@@H](O)[C@@H]1C(C)(C)CC[C@@H]2O`, the TGI in assay [1] turned out to be 38.7 µM; in assay [2], 32.7 µM; in assay [9], 28.2 µM; in assay [3], 95 µM; in assay [4], 6.94 µM; in assay [5], 33.5 µM. Moreover, the results for the TGI in assay [6], in assay [7] and in assay [8] were 34.6 µM, 28.6 µM and 11 µM, respectively.

`CN(C)c1ccc(/C=C(\NC(=O)c2ccccc2)c2nc3ccc4c(c3[nH]2)C(=O)c2ccccc2C4=O)cc1`: the TGI is 64.2 µM in [1]; more than 100 µM in assay [2]; more than 100 µM in [9]; more than 100 µM in assay [3]; more than 100 µM in assay [4]; more than 100 µM in [5]. Besides, the TGI in assay [6], in assay [7] and in assay [8] was more than 100 µM throughout.

`COc1cc2c(c3c1c(=O)c1ccccc1n3C)C=CC(C)(C)O2`: the TGI in assay [1], in assay [2], in assay [9], in assay [3], in assay [4] and in assay [5] was more than 100 µM each time. Moreover, the TGI in assay [7] and in assay [8] was more than 100 µM throughout.

On to `CCOc1cccc2c1N[S@@](=O)S2`, for which the TGI in [1], in [9], in assay [3], in assay [4], in assay [6] and in [8] was more than 100 µM throughout.

Turning to `CCOc1ccc(N=C2NC(=O)C(CC(=O)Nc3ccccc3[N+](=O)[O-])S2)cc1` (centres undefined), the TGI in assay [1], in assay [2], in [9], in assay [3], in [4] and in [5] was more than 100 µM throughout. Moreover, the TGI in [6], in assay [7] and in [8] was more than 100 µM in each case.

Take `CC(=O)c1ccc(NC(=O)C(=O)C(C(=O)/C=C/c2ccccc2)C2OC(=O)c3ccccc32)cc1` (centres undefined): the TGI in assay [1], in assay [2], in assay [3], in assay [4], in assay [5] and in [6] was more than 100 µM each time. For the same compound, the TGI in [7] and in assay [8] was more than 100 µM each time.

For `CCOC(=O)C1Cc2ccc3c4c(ccc(c24)C1)CC(C(=O)OCC)C3`, the TGI in assay [1], in [2], in assay [9], in assay [3], in assay [4] and in [6] was more than 100 µM in each case. For the same compound, the TGI in assay [7] and in [8] was more than 100 µM in each case.

As for `C[N+](C)(C)CC1CCCCC1=O` (centres undefined), the TGI turned out to be 81.2 µM in assay [1]; 34.5 µM in assay [9]; 20.2 µM in assay [3]; 38.6 µM in [4]; 57.5 µM in [6]; 80.3 µM in assay [7].

For the compound `Cc1cc(NCc2cc(Nc3ccnc4cc(Cl)ccc34)ccc2F)nc(N2CCOCC2)n1`, the GI50 in assay [1] was 1.32 µM; in [2], 2.45 µM; in assay [9], 1.53 µM; in assay [3], 2.53 µM; in assay [6], 3.18 µM; in assay [8] it was 1.99 µM. The TGI is 2.79 µM in assay [1]; 6.97 µM in assay [2]; 2.95 µM in assay [9]; 34.6 µM in [3]; 23.9 µM in assay [6]; 4.7 µM in assay [8].

As to `CN/N=C(/c1nc2ccc([N+](=O)[O-])cc2[nH]c1=O)C(O)c1ccc(C(O)/C(=N\NC)c2nc3ccc([N+](=O)[O-])cc3[nH]c2=O)cc1` (centres undefined), the TGI in [1], in assay [2], in assay [9], in assay [3], in [4] and in assay [6] was more than 100 µM throughout. Besides, the TGI in assay [7] and in [8] was more than 100 µM in each case.

Consider `OC1=CN=COc2ccccc21`, for which the TGI in [1], in assay [9], in [3], in assay [4], in assay [5] and in assay [6] was more than 100 µM in each case. Moreover, in assay [8], the TGI is more than 100 µM.

Regarding `COc1cccc(-c2cc(=O)c3cc4c(cc3[nH]2)OCO4)c1`, the TGI is 0.245 µM in assay [1]; 3.02 µM in [2]; 0.452 µM in assay [9]; more than 100 µM in [3]; more than 67.6 µM in assay [4]; more than 100 µM in [6]. Moreover, the TGI in [7] was 0.327 µM; in [8], 3.77 µM.

As to `COc1cc(C2=NN(C(C)=O)C(c3cc(OC)c(OC)c(OC)c3)C2)ccc1O` (centres undefined), the GI50 in [1] is 0.26 µM; in [2], 6.74 µM; in [9], 0.289 µM; in assay [3], 0.342 µM; in assay [5], 0.532 µM; in [6], 1.13 µM. The GI50 in assay [7] is 0.132 µM. In addition, the TGI in assay [1] is more than 100 µM; in assay [2] it was more than 100 µM; in assay [9], 5.21 µM; in [5], more than 100 µM; in assay [6], more than 100 µM; in assay [7], 2.19 µM. The compound further returned a TGI in [8] of more than 100 µM.

With `CC1=Nc2ccccc2SC(c2c(Cl)cccc2Cl)C1` (centres undefined), the TGI was 5.67 µM in assay [1]; 4.08 µM in assay [2]; 0.885 µM in assay [9]; 2.26 µM in assay [3]; 3.29 µM in assay [4]; 4.56 µM in assay [5]. The figures for the TGI in [6] and in [7] were 3.82 µM and 3.06 µM, respectively.
